Measured values reported in PubChem BioAssay AID1963427 (Molecular Pharmacology Branch, DTP, NCI, 2024).
Blank lines part the entries; values can stand above or below the molecule they belong to.

Test system: 317291-083-R-J1-PDC complex spheroid growth
Assay: Anticancer human tumor 317291-083-R-J1-PDC patient-derived soft tissue sarcoma cell line growth inhibition [Asc]
Conditions: for IC50: curve of first compound; for viability, T/C: stronger effect = lower value
Method in brief: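 Stromal components (HUVEC and hMSC) are co-assembled with the cancer cells into multicellular spheroids. Drugs are then added singly or paired, at concentrations falling by half-log increments from a clinically achievable maximum, capped at 10 microM without known Cmax.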

[1] = second compound 0.0316 µM, first compound 0.0316 µM
[2] = second compound 0.0316 µM, first compound 0.1 µM
[3] = second compound 0.0316 µM, first compound 0.316 µM
[4] = second compound 0.0316 µM, first compound 1 µM
[5] = second compound 0.1 µM, first compound 0.0316 µM
[6] = second compound 0.1 µM, first compound 0.1 µM
[7] = second compound 0.1 µM, first compound 0.316 µM
[8] = second compound 0.1 µM, first compound 1 µM
[9] = second compound 0.316 µM, first compound 0.0316 µM
[10] = second compound 0.316 µM, first compound 0.1 µM
[11] = second compound 0.316 µM, first compound 0.316 µM
[12] = second compound 0.316 µM, first compound 1 µM
[13] = second compound 1 µM, first compound 0.0316 µM
[14] = second compound 1 µM, first compound 0.1 µM
[15] = second compound 1 µM, first compound 0.316 µM
[16] = second compound 1 µM, first compound 1 µM
[17] = second compound 3.16 µM, first compound 0.0316 µM
[18] = second compound 3.16 µM, first compound 0.1 µM
[19] = second compound 3.16 µM, first compound 0.316 µM
[20] = second compound 3.16 µM, first compound 1 µM
[21] = second compound 10 µM, first compound 0.0316 µM
[22] = second compound 10 µM, first compound 0.1 µM
[23] = second compound 10 µM, first compound 0.316 µM
[24] = second compound 10 µM, first compound 1 µM
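Note: compound exposure lasted seven days after spheroids formed for three days.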
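Throughout, for viability, T/C: 100% = DMSO vehicle control wells.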

IC50 (second compound 0.0316 µM): 1920 nM
IC50 (second compound 0.1 µM): 1970 nM
IC50 (second compound 0.316 µM): 1720 nM
IC50 (second compound 1 µM): 1620 nM
IC50 (second compound 3.16 µM): 1170 nM
IC50 (second compound 10 µM): 1590 nM
Compound: C=C(F)C(=O)N1CCN(c2nc(OCC3CCCN3C)nc3c2CCN(c2cccc4cccc(Cl)c24)C3)CC1CC#N (stereo unspecified) + Cc1c(S(C)(=O)=O)c(-c2cc(F)cc(N3CCN(c4ccc(NS(=O)(=O)c5ccc(NC(CCN6CCC(C(=O)OCCCP(=O)(O)O)CC6)CSc6ccccc6)c(S(=O)(=O)C(F)(F)F)c5)cc4)CC3)c2)c(-c2ccc(Cl)cc2)n1C(C)C
viability, T/C [1]: 105%
viability, T/C [2]: 105%
viability, T/C [3]: 85.2%
viability, T/C [4]: 83.2%
viability, T/C (second compound 0.0316 µM, first compound 3.16 µM): 25.8%
viability, T/C (second compound 0.0316 µM, first compound 10 µM): 0.54%
viability, T/C [5]: 113%
viability, T/C [6]: 97%
viability, T/C [7]: 86.2%
viability, T/C [8]: 96.7%
viability, T/C (second compound 0.1 µM, first compound 3.16 µM): 17.6%
viability, T/C (second compound 0.1 µM, first compound 10 µM): 0.18%
viability, T/C [9]: 80.8%
viability, T/C [10]: 90%
viability, T/C [11]: 77.5%
viability, T/C [12]: 87.1%
viability, T/C (second compound 0.316 µM, first compound 3.16 µM): 11.7%
viability, T/C (second compound 0.316 µM, first compound 10 µM): 0.14%
viability, T/C [13]: 87.5%
viability, T/C [14]: 72.9%
viability, T/C [15]: 76.8%
viability, T/C [16]: 76.3%
viability, T/C (second compound 1 µM, first compound 3.16 µM): 13.7%
viability, T/C (second compound 1 µM, first compound 10 µM): 2.51%
viability, T/C [17]: 100%
viability, T/C [18]: 69.9%
viability, T/C [19]: 74.5%
viability, T/C [20]: 58.6%
viability, T/C (second compound 3.16 µM, first compound 3.16 µM): 7.37%
viability, T/C (second compound 3.16 µM, first compound 10 µM): 0.24%
viability, T/C [21]: 96.5%
viability, T/C [22]: 99.1%
viability, T/C [23]: 96.7%
viability, T/C [24]: 77.9%
viability, T/C (second compound 10 µM, first compound 3.16 µM): 8.59%
viability, T/C (second compound 10 µM, first compound 10 µM): 0.29%

IC50 (second compound 0.0316 µM): > 3000 nM
IC50 (second compound 0.1 µM): > 3000 nM
IC50 (second compound 0.316 µM): > 3000 nM
IC50 (second compound 1 µM): > 3000 nM
IC50 (second compound 3.16 µM): > 3000 nM
IC50 (second compound 10 µM): > 3000 nM
Compound: CCN1C(C(=O)NC23CCC(C(=O)O)(CC2)CC3)C(c2cccc(Cl)c2F)C2(C(=O)Nc3cc(Cl)ccc32)C12CCCCC2 (stereo unspecified) + Cc1c(S(C)(=O)=O)c(-c2cc(F)cc(N3CCN(c4ccc(NS(=O)(=O)c5ccc(NC(CCN6CCC(C(=O)OCCCP(=O)(O)O)CC6)CSc6ccccc6)c(S(=O)(=O)C(F)(F)F)c5)cc4)CC3)c2)c(-c2ccc(Cl)cc2)n1C(C)C
viability, T/C (second compound 0.0316 µM, first compound 0.00949 µM): 108%
viability, T/C (second compound 0.0316 µM, first compound 0.03 µM): 122%
viability, T/C (second compound 0.0316 µM, first compound 0.0949 µM): 99.7%
viability, T/C (second compound 0.0316 µM, first compound 0.3 µM): 95.1%
viability, T/C (second compound 0.0316 µM, first compound 0.949 µM): 83.6%
viability, T/C (second compound 0.0316 µM, first compound 3 µM): 80.5%
viability, T/C (second compound 0.1 µM, first compound 0.00949 µM): 110%
viability, T/C (second compound 0.1 µM, first compound 0.03 µM): 90.2%
viability, T/C (second compound 0.1 µM, first compound 0.0949 µM): 89.5%
viability, T/C (second compound 0.1 µM, first compound 0.3 µM): 98.2%
viability, T/C (second compound 0.1 µM, first compound 0.949 µM): 108%
viability, T/C (second compound 0.1 µM, first compound 3 µM): 73.4%
viability, T/C (second compound 0.316 µM, first compound 0.00949 µM): 80.9%
viability, T/C (second compound 0.316 µM, first compound 0.03 µM): 90.8%
viability, T/C (second compound 0.316 µM, first compound 0.0949 µM): 90.3%
viability, T/C (second compound 0.316 µM, first compound 0.3 µM): 98.4%
viability, T/C (second compound 0.316 µM, first compound 0.949 µM): 91.5%
viability, T/C (second compound 0.316 µM, first compound 3 µM): 67.6%
viability, T/C (second compound 1 µM, first compound 0.00949 µM): 92.2%
viability, T/C (second compound 1 µM, first compound 0.03 µM): 90.3%
viability, T/C (second compound 1 µM, first compound 0.0949 µM): 68.9%
viability, T/C (second compound 1 µM, first compound 0.3 µM): 90.2%
viability, T/C (second compound 1 µM, first compound 0.949 µM): 89.7%
viability, T/C (second compound 1 µM, first compound 3 µM): 58%
viability, T/C (second compound 3.16 µM, first compound 0.00949 µM): 83.9%
viability, T/C (second compound 3.16 µM, first compound 0.03 µM): 84.1%
viability, T/C (second compound 3.16 µM, first compound 0.0949 µM): 68.6%
viability, T/C (second compound 3.16 µM, first compound 0.3 µM): 82.1%
viability, T/C (second compound 3.16 µM, first compound 0.949 µM): 85.9%
viability, T/C (second compound 3.16 µM, first compound 3 µM): 63.1%
viability, T/C (second compound 10 µM, first compound 0.00949 µM): 99.3%
viability, T/C (second compound 10 µM, first compound 0.03 µM): 102%
viability, T/C (second compound 10 µM, first compound 0.0949 µM): 90.8%
viability, T/C (second compound 10 µM, first compound 0.3 µM): 85.4%
viability, T/C (second compound 10 µM, first compound 0.949 µM): 94.8%
viability, T/C (second compound 10 µM, first compound 3 µM): 75.8%

IC50 (second compound 0.0316 µM): 197 nM
IC50 (second compound 0.1 µM): 138 nM
IC50 (second compound 0.316 µM): 176 nM
IC50 (second compound 1 µM): 61.4 nM
IC50 (second compound 3.16 µM): 84.1 nM
IC50 (second compound 10 µM): 149 nM
Compound: CNC(C)C(=O)NC1CN(S(=O)(=O)c2cccc(S(=O)(=O)N3CCC4CCC(C(=O)NC(c5ccccc5)c5ccccc5)N4C(=O)C(NC(=O)C(C)NC)C3)c2)CCC2CCC(C(=O)NC(c3ccccc3)c3ccccc3)N2C1=O (stereo unspecified) + Cc1c(S(C)(=O)=O)c(-c2cc(F)cc(N3CCN(c4ccc(NS(=O)(=O)c5ccc(NC(CCN6CCC(C(=O)OCCCP(=O)(O)O)CC6)CSc6ccccc6)c(S(=O)(=O)C(F)(F)F)c5)cc4)CC3)c2)c(-c2ccc(Cl)cc2)n1C(C)C
viability, T/C (second compound 0.0316 µM, first compound 0.00316 µM): 121%
viability, T/C (second compound 0.0316 µM, first compound 0.01 µM): 65.5%
viability, T/C [1]: 82.7%
viability, T/C [2]: 55.4%
viability, T/C [3]: 53.3%
viability, T/C [4]: 32.9%
viability, T/C (second compound 0.1 µM, first compound 0.00316 µM): 88.3%
viability, T/C (second compound 0.1 µM, first compound 0.01 µM): 80.2%
viability, T/C [5]: 60.4%
viability, T/C [6]: 62.2%
viability, T/C [7]: 35.1%
viability, T/C [8]: 25.1%
viability, T/C (second compound 0.316 µM, first compound 0.00316 µM): 82.7%
viability, T/C (second compound 0.316 µM, first compound 0.01 µM): 67.4%
viability, T/C [9]: 74.5%
viability, T/C [10]: 60.5%
viability, T/C [11]: 38.8%
viability, T/C [12]: 23.8%
viability, T/C (second compound 1 µM, first compound 0.00316 µM): 70.7%
viability, T/C (second compound 1 µM, first compound 0.01 µM): 61.4%
viability, T/C [13]: 55%
viability, T/C [14]: 44.5%
viability, T/C [15]: 41.3%
viability, T/C [16]: 25.3%
viability, T/C (second compound 3.16 µM, first compound 0.00316 µM): 81%
viability, T/C (second compound 3.16 µM, first compound 0.01 µM): 53.1%
viability, T/C [17]: 65.1%
viability, T/C [18]: 50.9%
viability, T/C [19]: 36.6%
viability, T/C [20]: 22.1%
viability, T/C (second compound 10 µM, first compound 0.00316 µM): 77.5%
viability, T/C (second compound 10 µM, first compound 0.01 µM): 78.6%
viability, T/C [21]: 67.1%
viability, T/C [22]: 60%
viability, T/C [23]: 34.9%
viability, T/C [24]: 24.8%
